In US20070037848A1, “Treatment of neurological conditions” (priority 2003, published 2007):
Entries after “also recorded” stand apart in the source; their conditions may differ.

Key:
plasma Aβ40 = assay: Phase II clinical trial: plasma Aβ40; format: in vivo, human
Description: (§1) Screening procedures consisted of a full medical history, full physical, neurological and ophthalmic examination, blood and urine tests and psychometric tests (ADAS-Cog, MMSE) to confirm the patient's eligibility for the study. Nerve conduction tests and visual evoked responses were conducted between the screening and baseline visits to provide a baseline measurement and to exclude patients with undiagnosed peripheral neuropathies or visual disturbances. Blood was collected for ApoE allotyping and determination of baseline plasma levels of CQ, metals and Aβ prior to randomization.
(§2) The primary efficacy variable was a change in the baseline score on the AD Assessment Scale (ADAS), which was conducted at baseline and at weeks 4, 12, 24 and 36. This readout was chosen for comparability of treatment effects with current therapeutic agents, such as donepezil, for which efficacy trials also used ADAS as their primary outcome measure (Rogers et al., Neurology 50: 136-145, 1998). Although numerous neuropsychological tests could be considered as secondary measures, it was necessary to avoid fatiguing the subjects at review. Therefore the only other cognitive test performed was the Mini-Mental State Exam (MMSE), which is well characterized and easily implemented. […]

[1] = Safety measures / adverse event reporting in the Phase II trial; format: in vivo, human
Description: (§3) Standard adverse event reporting to a safety monitoring committee, consisting of physicians independent of the study, was conducted to review adverse events at three monthly intervals and on an emergent basis. Following baseline, safety visits were conducted at weeks 2, 4, 8, 12, 16, 20, 24, 26, 28, 32 and 36. The patient and carer were questioned about any changes which might have occurred in the patient's health or medications since the last visit. Standard biochemical, renal and liver function, full blood examination, serum vitamin B12 and folate levels, blood pressure and weight were documented at each visit. A neurological examination was conducted at each visit to assess for peripheral neuropathy and optic neuropathy, and visual evoked responses, nerve conduction studies and a full ophthalmic examination (visual acuity, colour vision, fundal examination and visual field) were conducted at screening, at week 18 and at two weeks after trial completion. An ECG was performed at baseline and at weeks 12 and 24.

plasma Cu = assay: Phase II clinical trial: plasma copper; format: in vivo, human; details: administration of CQ vs placebo
Description: as §1, §2

[2] = system: patients with probable AD; assay: Phase II clinical trial of clioquinol: cognitive function (ADAS-Cog); format: in vivo, human; details: for increase in ADAS-Cog scores: CQ group
Description: On the basis of the pre-clinical data, a Phase II clinical trial was prepared of CQ for the treatment of AD. Inclusion criteria for this Phase II study targeted a region on the ADAS-cog scale (20-45) where patients are moderately demented, still living at home, but anticipating an accelerated deterioration as part of the natural history of AD, over the next 12 months. Because the primary outcome was efficacy, a triple-blind design was chosen.
Criteria for inclusion in the study were:— • (a) informed consent; • (b) a diagnosis of probable AD by NINCDS-ADRDA criteria (McKhann et al., Neurology 34: 939-944, 1984); • (c) AD Assessment Scale-Cognitive (ADAS-Cog) score of 20-45 inclusive (Rosen et al., Am. J. Psychiatry 141: 1356-1364, 1984); • (d) Mini Mental State Examination (MMSE) score of 10-24 inclusive (Folstein et al., J. Psychiatr. Res. 12: 189-198, 1975); • (e) on donepezil hydrochloride 5 mg or 10 mg for at least six months; • (f) relative or carer willing and able to support the trial; • (g) able to complete trial examinations; and • (h) primary sensorial functions intact.
The study was a triple blind, placebo-controlled, randomized design. Thirty-six patients and their carers were recruited to participate, with patients being randomized to receive either CQ or placebo; there were 18 patients in each arm. The duration of the study was 36 weeks. CQ dosage was 125 mg twice daily from weeks 0-12, increased to 250 mg twice daily from weeks 13-24, and finally, 375 mg twice daily from weeks 25-36.
as §2, with “implemented. The Clinician's Interview Based Impression of Change (CIBIC), a subjective observational index also used in efficacy trials of acetylcholinesterase inhibitors, was conducted at baseline and at weeks 12, 24 and 36 by an independent researcher who was not part of the study team. Blood samples for measurement of plasma Aβ and plasma zinc and copper were all taken four weekly, by antecubital fossa venepuncture.” for “implemented.”

Aβ accumulation = details: cited from earlier work
plasma Aβ42 = assay: Phase II clinical trial: plasma Aβ42; format: in vivo, human
Description: as §1, §2

[3] = Nerve conduction studies (peripheral nerve latency) in the Phase II trial; format: in vivo, human
Description: as §1, §3

plasma Zn = assay: Phase II clinical trial: plasma zinc; format: in vivo, human
Description: as §1, §2

## Oc1c(I)cc(Cl)c2cccnc12 [CQ, iodochlorhydroxyquin]
Plasma Aβ40; compared with Aβ42 trends, CQ vs placebo
  plasma Aβ40 levels: overall similar trends
Plasma Aβ40; weeks 8, 32 and 36, less-severely affected groups
  plasma Aβ40, placebo vs CQ groups: significant differences
[1]; 36 weeks, 250-750 mg/day
  overall safety and tolerability: safe and well tolerated
[1]; CQ arm
  non-attributable serious adverse event (hospitalization): syncope due to impaired cardiac function
[1]; CQ arm, group LFT changes
  albumin: fell significantly
  γ-GT, AST, ALT and bilirubin: small significant elevation
[1]; CQ arm, week 24, p=0.003
  reduction in haemoglobin: 6.88 g/L
[1]; CQ arm, week 36, p=0.03
  reduction in haemoglobin: 5.5 g/L
[1]; CQ-treated subjects
  adverse haematological events: no adverse haematological events
[1]; between the two arms, McNemar's test
  risk of impairment in visual acuity, colour vision, visual fields or fundoscopic abnormalities: no significant differences
[1]; changes at week 24 returning to normal by week 36
  overt symptoms or signs of impaired liver function: No subject developed any overt symptoms or signs of impaired liver function
[1]; patients on CQ vs placebo
  likelihood of changes in liver function tests (LFT): more likely
  likelihood to develop diarrhoea: less likely
[1]; treatment arm n = 18
  Abdominal pain, subjects: 2
  Constipation, subjects: 2
  Decreased vitamin B12, subjects: 0
  Diarrhoea, subjects: 1
  Impaired nerve conduction, subjects: 3
  Impaired reflexes, subjects: 1
  Lymphopoenia, subjects: 0
  Microalbuminurea, subjects: 5
  Nausea, subjects: 2
  Numb legs, subjects: 2
  Postural Dizziness, subjects: 7
  Postural Hypotension, subjects: 12
  Postural Tachyardia, subjects: 12
  Raised bilirubin, subjects: 2
  Raised γGT, subjects: 2
  Subjects with +1 postural symptom: 13
  Subjects with =1 GI symptom: 5
  Subjects with =1 abnormal LFT: 4
  Subjects with =1 neurological symptom: 6
[1]; treatment arm, 61/18
  Mean number discrete Adverse Events Per subject: 3.38
[1]; treatment group, n = 18
  number of attributable events reported: 61
[1]; treatment vs placebo
  Abdominal pain, Relative Risk: 2.0
  Diarrhoea, Relative Risk: 0.25
  Impaired nerve conduction, Relative Risk: 3.0
  Impaired reflexes, Relative Risk: 0.5
  Microalbuminurea, Relative Risk: 1.00
  Postural Dizziness, Relative Risk: 2.33
  Postural Hypotension, Relative Risk: 1.09
  Raised γGT, Relative Risk: 2.0
  Subjects with +1 postural symptom, Relative Risk: 0.93
  Subjects with =1 GI symptom, Relative Risk: 1.25
  Subjects with =1 abnormal LFT, Relative Risk: 4.0
  Subjects with =1 neurological symptom, Relative Risk: 1.5
[1]; treatment vs placebo, p = 0.327
  Mean number discrete Adverse Events Per subject, Mean diff: 0.611
Plasma Cu
  plasma Cu: no effect
[2]; less-severely affected patients
  increase in ADAS-Cog scores: only small increases
[2]; more severely-affected patients
  increase in ADAS-Cog scores: negligible increase
[2]; more-severely affected group (baseline ADAS-Cog≧25), CQ vs placebo
  effect of treatment on ADAS-Cog: statistically significant; also recorded: significant effect on preventing cognitive decline
[2]; whole cohort, CQ vs placebo, 36 weeks, on donepezil
  primary clinical outcome of efficacy, ADAS-Cog change from baseline: trend
Aβ accumulation; 30 mg/kg body weight by gavage (Cherny et al., 2001)
  effect on Aβ deposits in transgenic mice: effective
Aβ accumulation; 20-30 mg/kg orally daily, five days per week, two to three months
  inhibiting Aβ accumulation in transgenic mice: markedly effective
Plasma Aβ42; CQ-treated group, lowering from week 20 onwards, placebo increased
  change in plasma Aβ42: declined; also recorded: very significant lowering
Plasma Aβ42; less-severely affected individuals compared with more-severely affected
  plasma Aβ42 changes by severity: more evident
[3]; Pair 1, paired difference, unit assumed
  calf latency (baseline)-calf latency (week 20), Mean within-group change: 0.575 ms
[3]; Pair 2, paired difference, in ms (unit assumed)
  calf latency (baseline)-calf latency (week 36), Mean within-group change: .7937
[3]; Pair 3, paired difference, in ms (unit assumed)
  wrist 1 latency week 1-wrist 1 latency week 20, Mean within-group change: .5824
[3]; Pair 4, paired difference, in ms (unit assumed)
  wrist 1 latency week 1-wrist 1 latency week 36, Mean within-group change: .7875
[3]; Pair 5, paired difference, in ms (unit assumed)
  wrist 2 latency week 1-wrist 2 latency week 20, Mean within-group change: 1.000E−01
[3]; Pair 6, paired difference, in ms (unit assumed)
  wrist 2 latency week 1-wrist 2 latency week 36, Mean within-group change: .2429
[3]; detailed analyses, to week 36
  between group differences in nerve conduction parameters: no significant between group differences
[3]; subjects on CQ vs placebo
  risk of displaying abnormal nerve conduction: increased risk
Plasma Zn; CQ, Phase II trial
  rise of plasma Zn levels: 30%
Plasma Zn; administration of CQ vs placebo
  total plasma Zn: significant elevation
